Measured values reported in patent US6593455B2, “Tripeptide amides that block viral infectivity and methods of use thereof” (Tripep AB, priority 2001, dated 2003).
Ends that are not written are not given here.

System: HIV-1 SF-2
Test: HIV-1 infectivity assay in H9 cells (p24 production and RT activity in culture supernatants)
Assay type: cell-based
Conditions: approximately 100 μm peptide
Excerpt: The tripeptide amides made according to EXAMPLE 1 were used in several HIV-1 infectivity assays to determine the ability of said tripeptide amides to inhibit HIV replication and/or infection. The efficiency of HIV-1 replication and status of HIV-1 infection was monitored by reverse transcriptase activity and the concentration of p24 protein in the cell supernatant. (See e.g., U.S. Pat. Nos. 5,627,035 and 6,258,932B1, herein expressly incorporated by reference in their entireties, which describe similar HIV infectivity assays and others that can be used to analyze the tripeptide amides described herein). EXAMPLE 2 describes an approach that was used to screen several tripeptide amides for their ability to inhibit HIV-1 infection.
In this example, the methods that were used to analyze the ability of various tripeptide amides to inhibit HIV-1 replication are disclosed. Approximately 10^5 of H9 cells were infected with HIV-1 SF-2 at 25 TCID50 to test the inhibitory effect of the following synthesized tripeptides: Ser-Ile-Leu-NH2, Ile-Leu-Asp-NH2, Gly-Pro-Lys-NH2, Pro-Lys-Glu-NH2, Lys-Glu-Pro-NH2, Glu-Pro-Phe-NH2, Arg-Asp-Tyr-NH2, Asp-Tyr-Val-NH2, Tyr-Lys-Thr-NH2, Arg-Ala-Glu-NH2, Ala-Glu-Gln-NH2, Glu-Gln-Ala-NH2, Val-Lys-Asn-NH2, Thr-Glu-Thr-NH2, Leu-Leu-Val-NH2, Val-Gln-Asn-NH2, Gln-Asn-Ala,-NH2, Asn-Ala-Asn-NH2, Asn-Pro-Asp-NH2, Pro-Asp-Cys-NH2, Cys-Lys-Thr-NH2, Thr-Ile-Leu-NH2, Pro-Gly-Ala-NH2, Thr-Leu-Glu-NH2, Thr-Ala-Cys-NH2, Ala-Cys-Gln-NH2, Gln-Gly-Val-NH2, Pro-Gly-His-NH2, and Arg-Val-Leu-NH2. Accordingly, the H9 cells were resuspended with or without the different peptides (approximately 100 μm) in 1 ml of RPMI 1640 medium supplemented with 10% (v/v) heat-inactivated fetal bovine serum (FBS), penicillin (100 μ/ml), and streptomycin (100 μ/ml), all available through GIBCO, and Polybrene (2 μg/ml), available through Sigma. Thereafter, viruses were added at 25 TCID50 in a volume of 20-30 μl. Cells were incubated with virus at 37° C. for 1 hr then pelleted at 170×g for 7 minutes. The cells were then washed three times in RPMI medium with or without peptides at room temperature and pelleted at 170×g for 7 minutes, as above. After the final wash, the cells were resuspended in RPMI culture medium containing the peptides in a 24-well plate (Costar corporation) and were kept at 37° C. in 5% CO2 with humidity.
Culture supernatants were collected and analyzed when the medium was changed at 4, 7, 10, and 14 days post infection. To monitor the replication of virus, reverse transcriptase (RT) activity in the supernatants was assayed using a commercially available Lenti-RT activity kit. (Cavidi Tech, Uppsala, Sweden). The amount of RT was determined with the aid of a regression line of standards.
The presence of p24 in the supernatants was determined using a commercially available HIV p24 antigen detection kit (ELISA kit from Abbott Laboratories, North Chicago, U.S.A.). In some cases, serial dilutions of the supernatants were made so as to more accurately detect p24 concentration.

Substance	inhibition of HIV-1 infection
Ala-Cys-Gln-NH2	effectively inhibit HIV-1 infection
Ala-Glu-Gln-NH2	effectively inhibit HIV-1 infection
Arg-Ala-Glu-NH2	effectively inhibit HIV-1 infection
Arg-Asp-Tyr-NH2	effectively inhibit HIV-1 infection
Arg-Val-Leu-NH2	effectively inhibit HIV-1 infection
Asn-Ala-Asn-NH2	effectively inhibit HIV-1 infection
Asn-Pro-Asp-NH2	effectively inhibit HIV-1 infection
Asp-Tyr-Val-NH2	effectively inhibit HIV-1 infection
Cys-Lys-Thr-NH2	effectively inhibit HIV-1 infection
Gln-Asn-Ala-NH2	effectively inhibit HIV-1 infection
Gln-Gly-Val-NH2	effectively inhibit HIV-1 infection
Glu-Gln-Ala-NH2	effectively inhibit HIV-1 infection
Glu-Pro-Phe-NH2	effectively inhibit HIV-1 infection
Gly-Pro-Lys-NH2	effectively inhibit HIV-1 infection
Ile-Leu-Asp-NH2	effectively inhibit HIV-1 infection
Leu-Leu-Val-NH2	effectively inhibit HIV-1 infection
Lys-Glu-Pro-NH2	effectively inhibit HIV-1 infection
Pro-Asp-Cys-NH2	effectively inhibit HIV-1 infection
Pro-Gly-Ala-NH2	effectively inhibit HIV-1 infection
Pro-Gly-His-NH2	effectively inhibit HIV-1 infection
Pro-Lys-Glu-NH2	effectively inhibit HIV-1 infection
Ser-Ile-Leu-NH2	effectively inhibit HIV-1 infection
Thr-Ala-Cys-NH2	effectively inhibit HIV-1 infection
Thr-Glu-Thr-NH2	effectively inhibit HIV-1 infection
Thr-Ile-Leu-NH2	effectively inhibit HIV-1 infection
Thr-Leu-Glu-NH2	effectively inhibit HIV-1 infection
Tyr-Lys-Thr-NH2	effectively inhibit HIV-1 infection
Val-Gln-Asn-NH2	effectively inhibit HIV-1 infection
Val-Lys-Asn-NH2	effectively inhibit HIV-1 infection
